Test results taken from ChEMBL document CHEMBL1909046, “DrugMatrix in vitro pharmacology data”.

How the values were obtained:
[1] = biological target: Voltage-gated inwardly rectifying potassium channel KCNH2 (Homo sapiens, UniProt Q12809); conditions: hek293; also: in other assays of this panel Not Active means under 50% inhibition at 10 µM
Cytochrome P450 2A6 = biological target: T1, Cytochrome P450 2A6 (Homo sapiens, UniProt P11509); conditions: bti-tn-5b1-4; also: in other assays of this panel Not Active means under 50% inhibition at 10 µM
T1 sequence (P11509 whole entry): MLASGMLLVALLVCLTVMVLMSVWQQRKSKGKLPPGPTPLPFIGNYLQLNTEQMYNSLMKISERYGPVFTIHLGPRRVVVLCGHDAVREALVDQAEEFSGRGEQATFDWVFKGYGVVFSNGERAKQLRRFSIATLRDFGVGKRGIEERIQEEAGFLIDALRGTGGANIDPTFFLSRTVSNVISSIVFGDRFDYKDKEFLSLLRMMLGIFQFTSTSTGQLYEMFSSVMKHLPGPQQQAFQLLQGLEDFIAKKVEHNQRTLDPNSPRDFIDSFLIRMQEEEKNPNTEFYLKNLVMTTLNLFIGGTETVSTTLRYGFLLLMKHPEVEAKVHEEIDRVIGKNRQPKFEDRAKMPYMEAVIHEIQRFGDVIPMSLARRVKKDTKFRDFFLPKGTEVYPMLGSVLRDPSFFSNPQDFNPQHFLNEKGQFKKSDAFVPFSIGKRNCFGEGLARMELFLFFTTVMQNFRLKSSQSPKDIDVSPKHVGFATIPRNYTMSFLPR

[2] = DRUGMATRIX: Potassium Channel [KATP] radioligand binding (ligand: [3H] Glyburide); format: cell membranes, Membrane; conditions: hit-t15, Not Active = under 50% inhibition at 10 µM
Glycine receptor = Glycine receptor (Rattus norvegicus, UniProt P22771+P24524+P07727+P20781); format: cell membranes, Wistar, Spinal cord, Membrane; also: in other assays of this panel Not Active means under 50% inhibition at 10 µM
[3] = DRUGMATRIX: GABAA, Muscimol, Central radioligand binding (ligand: [3H] Muscimol); format: cell membranes, Rattus norvegicus, Wistar, Brain, Membrane; conditions: Not Active = under 50% inhibition at 10 µM
[4] = biological target: Matrix metalloproteinase-9 (Homo sapiens, UniProt P14780); assay: biochemical; format: cell-based;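 also: inhibition of isolated MMP-9 enzyme activity toward a synthetic peptide substrate, from the DrugMatrix protease screening panel; in other assays of this panel Not Active means under 50% inhibition at 10 µM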
Sequence of Matrix metalloproteinase-9 (P14780 whole entry): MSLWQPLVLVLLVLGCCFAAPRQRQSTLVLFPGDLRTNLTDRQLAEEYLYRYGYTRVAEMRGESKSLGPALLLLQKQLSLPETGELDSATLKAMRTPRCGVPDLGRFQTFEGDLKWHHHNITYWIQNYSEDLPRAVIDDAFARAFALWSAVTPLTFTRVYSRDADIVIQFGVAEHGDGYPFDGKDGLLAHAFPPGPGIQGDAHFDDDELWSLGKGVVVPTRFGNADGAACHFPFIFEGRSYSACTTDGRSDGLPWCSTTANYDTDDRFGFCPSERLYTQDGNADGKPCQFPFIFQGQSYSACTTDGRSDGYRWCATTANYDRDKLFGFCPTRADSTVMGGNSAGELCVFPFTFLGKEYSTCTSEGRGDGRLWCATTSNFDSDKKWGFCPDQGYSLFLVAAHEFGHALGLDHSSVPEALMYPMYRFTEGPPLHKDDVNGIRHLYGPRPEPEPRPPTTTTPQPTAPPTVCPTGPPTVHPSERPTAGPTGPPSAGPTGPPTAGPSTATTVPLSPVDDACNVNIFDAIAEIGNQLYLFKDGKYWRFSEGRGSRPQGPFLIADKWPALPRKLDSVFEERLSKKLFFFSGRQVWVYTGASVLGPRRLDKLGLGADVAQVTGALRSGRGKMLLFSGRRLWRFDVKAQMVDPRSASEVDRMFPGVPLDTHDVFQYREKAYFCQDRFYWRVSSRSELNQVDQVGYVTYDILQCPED

[5] = biological target: T2, C-X-C chemokine receptor type 1 (Homo sapiens, UniProt P25024); also: in other assays of this panel Not Active means under 50% inhibition at 10 µM
T2 sequence (P25024 whole entry): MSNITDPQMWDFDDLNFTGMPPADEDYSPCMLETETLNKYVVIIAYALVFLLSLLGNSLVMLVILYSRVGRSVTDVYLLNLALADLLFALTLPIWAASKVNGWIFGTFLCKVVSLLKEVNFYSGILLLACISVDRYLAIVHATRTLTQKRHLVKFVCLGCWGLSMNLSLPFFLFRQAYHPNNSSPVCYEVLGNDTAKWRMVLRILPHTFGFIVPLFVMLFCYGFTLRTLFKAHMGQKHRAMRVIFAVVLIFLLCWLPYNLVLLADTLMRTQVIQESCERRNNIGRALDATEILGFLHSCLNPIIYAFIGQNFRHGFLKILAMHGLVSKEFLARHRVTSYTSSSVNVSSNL

Sequence of Voltage-gated inwardly rectifying potassium channel KCNH2 (Q12809 whole entry): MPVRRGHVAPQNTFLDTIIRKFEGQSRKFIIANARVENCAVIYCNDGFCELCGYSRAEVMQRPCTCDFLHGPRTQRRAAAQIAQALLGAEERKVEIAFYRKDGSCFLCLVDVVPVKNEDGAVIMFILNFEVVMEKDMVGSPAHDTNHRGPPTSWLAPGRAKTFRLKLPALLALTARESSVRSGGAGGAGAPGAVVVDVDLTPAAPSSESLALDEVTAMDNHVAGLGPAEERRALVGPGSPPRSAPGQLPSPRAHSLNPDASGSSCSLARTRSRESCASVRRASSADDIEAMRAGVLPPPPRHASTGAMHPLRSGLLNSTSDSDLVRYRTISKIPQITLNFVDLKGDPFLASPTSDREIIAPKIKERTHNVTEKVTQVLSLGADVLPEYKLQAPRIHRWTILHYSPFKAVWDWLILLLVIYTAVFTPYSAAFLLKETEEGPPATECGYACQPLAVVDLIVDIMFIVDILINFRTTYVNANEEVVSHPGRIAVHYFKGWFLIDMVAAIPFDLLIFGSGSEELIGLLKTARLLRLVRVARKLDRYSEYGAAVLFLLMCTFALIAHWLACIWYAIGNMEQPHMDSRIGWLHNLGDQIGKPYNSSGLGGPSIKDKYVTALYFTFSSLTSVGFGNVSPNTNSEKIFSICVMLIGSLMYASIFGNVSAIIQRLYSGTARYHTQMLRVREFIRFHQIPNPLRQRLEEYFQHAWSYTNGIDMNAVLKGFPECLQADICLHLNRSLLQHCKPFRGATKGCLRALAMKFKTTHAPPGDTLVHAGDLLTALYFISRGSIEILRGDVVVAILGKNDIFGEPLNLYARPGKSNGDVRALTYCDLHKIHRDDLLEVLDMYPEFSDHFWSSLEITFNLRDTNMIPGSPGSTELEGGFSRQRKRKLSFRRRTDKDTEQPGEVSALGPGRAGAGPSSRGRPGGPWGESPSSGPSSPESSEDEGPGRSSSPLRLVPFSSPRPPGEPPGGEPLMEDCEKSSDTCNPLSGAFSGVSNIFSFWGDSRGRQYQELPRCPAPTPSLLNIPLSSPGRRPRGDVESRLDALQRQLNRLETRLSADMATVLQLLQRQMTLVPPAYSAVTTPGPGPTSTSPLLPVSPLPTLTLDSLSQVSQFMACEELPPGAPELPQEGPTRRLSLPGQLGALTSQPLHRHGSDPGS

| Molecule | IC50 [1] | Ki [1] | IC50 (Cytochrome P450 2A6) | Ki (Cytochrome P450 2A6) | IC50 [2] | Ki [2] | IC50 (Glycine receptor) | IC50 [3] | Ki [3] | IC50 [4] | IC50 [5] | IC50 ([4]; read-out: IC50) [nM] | Ki (Glycine receptor) | Ki [4] | Ki [5] | IC50 ([2]; read-out: IC50) [nM] | Ki ([2]; read-out: Ki) [nM] |
| --- | --- | --- | --- | --- | --- | --- | --- | --- | --- | --- | --- | --- | --- | --- | --- | --- | --- |
| C=C(CC)C(=O)c1ccc(OCC(=O)O)c(Cl)c1Cl [ETHACRYNIC ACID] | Not Active | Not Active | Not Active | Not Active | Not Active | Not Active | Not Active | Not Active | Not Active | Not Active | Not Active |  |  |  |  |  |  |
| CC(C(=O)O)c1ccc(-c2ccccc2)c(F)c1 (configuration not stated) [FLURBIPROFEN] | Not Active | Not Active | Not Active | Not Active | Not Active | Not Active | Not Active | Not Active | Not Active | Not Active | Not Active |  |  |  |  |  |  |
| COc1ccccc1OCC(O)COC(N)=O (configuration not stated) [METHOCARBAMOL] | Not Active | Not Active | Not Active | Not Active | Not Active | Not Active | Not Active | Not Active | Not Active | Not Active | Not Active |  |  |  |  |  |  |
| CC(C(=O)O)c1ccc(CC2CCCC2=O)cc1 (configuration not stated) [LOXOPROFEN] | Not Active | Not Active | Not Active | Not Active | Not Active | Not Active | Not Active | Not Active | Not Active | Not Active | Not Active |  |  |  |  |  |  |
| CCCCC1C(=O)N(c2ccccc2)N(c2ccccc2)C1=O [PHENYLBUTAZONE] | Not Active | Not Active | Not Active | Not Active | Not Active | Not Active | Not Active | Not Active | Not Active | Not Active | Not Active |  |  |  |  |  |  |
| CCN[C@@H](C)Cc1cccc(C(F)(F)F)c1 [DEXFENFLURAMINE] | Not Active | Not Active | Not Active | Not Active | Not Active | Not Active | Not Active | Not Active | Not Active | Not Active | Not Active |  |  |  |  |  |  |
| COc1ccccc1OCC(O)CO (configuration not stated) [GUAIFENESIN] | Not Active | Not Active |  |  | Not Active | Not Active | Not Active | Not Active | Not Active | Not Active | Not Active |  |  |  |  |  |  |
| CCC(=O)O[C@H]1[C@H](O[C@@H]2[C@@H](C)[C@H](O[C@H]3C[C@@](C)(OC)[C@@H](O)[C@H](C)O3)[C@@H](C)C(=O)O[C@H](CC)[C@@](C)(O)[C@H](O)[C@@H](C)C(=O)[C@H](C)C[C@@]2(C)O)O[C@H](C)C[C@@H]1N(C)C [ERYTHROMYCIN PROPIONATE] | Not Active | Not Active | Not Active | Not Active | Not Active | Not Active | Not Active | Not Active | Not Active | Not Active | Not Active |  |  |  |  |  |  |
| C=C1/C(=C\C=C2/CCC[C@]3(C)[C@@H]([C@H](C)CCCC(C)C)CC[C@@H]23)C[C@@H](O)C[C@@H]1O [ALFACALCIDOL] | Not Active | Not Active | Not Active | Not Active | Not Active | Not Active | Not Active | Not Active | Not Active | Not Active | Not Active |  |  |  |  |  |  |
| CS(=O)(=O)OCCCCOS(C)(=O)=O [BUSULFAN] | Not Active | Not Active | Not Active | Not Active | Not Active | Not Active | Not Active | Not Active | Not Active |  | Not Active | 5220 |  |  |  |  |  |
| C[C@]12CCC(=O)C=C1CC[C@@H]1[C@@H]2[C@@H](O)C[C@@]2(C)[C@H]1CC[C@]2(O)C(=O)CO [HYDROCORTISONE] | Not Active | Not Active | Not Active | Not Active | Not Active | Not Active | Not Active | Not Active | Not Active | Not Active | Not Active |  |  |  |  |  |  |
| POLYVINYL ALCOHOL | Not Active | Not Active | Not Active | Not Active | Not Active | Not Active | Not Active | Not Active | Not Active | Not Active | Not Active |  | Not Active | Not Active | Not Active |  |  |
| COBALT(II) ACETYLACETONATE | Not Active | Not Active | Not Active | Not Active | Not Active | Not Active | Not Active | Not Active | Not Active | Not Active | Not Active |  | Not Active | Not Active | Not Active |  |  |
| Nc1nc(N)nc(NC2CC2)n1 [CYROMAZINE] | Not Active | Not Active | Not Active | Not Active | Not Active | Not Active | Not Active | Not Active | Not Active | Not Active | Not Active |  |  |  |  |  |  |
| CN(C(=O)CCCOc1ccc2[nH]c(=O)ccc2c1)C1CCCCC1 [CILOSTAMIDE] | Not Active | Not Active | Not Active | Not Active | Not Active | Not Active | Not Active | Not Active | Not Active | Not Active | Not Active |  |  |  |  |  |  |
| Cc1cn[nH]c1 [FOMEPIZOLE] | Not Active | Not Active |  |  | Not Active | Not Active | Not Active | Not Active | Not Active | Not Active | Not Active |  |  |  |  |  |  |
| CCC[C@@H]1C[C@@H](C(=O)N[C@@H]([C@H]2O[C@H](SC)[C@H](O)[C@@H](O)[C@H]2O)[C@H](C)Cl)N(C)C1 [CLINDAMYCIN] |  |  |  |  | Not Active | Not Active | Not Active | Not Active | Not Active | Not Active | Not Active |  |  |  |  |  |  |
| C/C=C\c1ccc(O)c(OC)c1 [ISOEUGENOL] |  |  |  |  | Not Active | Not Active | Not Active | Not Active | Not Active | Not Active | Not Active |  |  |  |  |  |  |
| Cc1cnc(C(=O)NCCc2ccc(S(=O)(=O)NC(=O)NC3CCCCC3)cc2)cn1 [GLIPIZIDE] |  |  |  |  |  |  | Not Active | Not Active | Not Active | Not Active | Not Active |  |  |  |  | 398 | 45 |
| CC[C@H](C)C(=O)O[C@H]1C[C@@H](C)C=C2C=C[C@H](C)[C@H](CC[C@@H]3C[C@@H](O)CC(=O)O3)[C@H]21 [LOVASTATIN] |  |  | Not Active | Not Active |  |  | Not Active | Not Active | Not Active | Not Active | Not Active |  |  |  |  |  |  |
| N[C@@H](Cc1ccc(F)cc1)C(=O)O | Not Active | Not Active |  |  | Not Active | Not Active | Not Active | Not Active | Not Active | Not Active | Not Active |  |  |  |  |  |  |
| OCCN1CCN(CCCN2c3ccccc3Sc3ccc(Cl)cc32)CC1 [PERPHENAZINE] |  |  | Not Active | Not Active | Not Active | Not Active | Not Active | Not Active | Not Active | Not Active | Not Active |  |  |  |  |  |  |
| C[C@@H]1CC[C@H]2[C@@H](C)C(=O)O[C@@H]3O[C@@]4(C)CC[C@@H]1[C@]32OO4 [ARTEMISININ] | Not Active | Not Active |  |  | Not Active | Not Active | Not Active | Not Active | Not Active | Not Active | Not Active |  |  |  |  |  |  |
| CN1C(=O)CN=C(c2ccccc2)c2cc(Cl)ccc21 [DIAZEPAM] |  |  | Not Active | Not Active | Not Active | Not Active | Not Active | Not Active | Not Active | Not Active | Not Active |  |  |  |  |  |  |
